{
  "source": "patent US12708632B2",
  "about": "(Jazz Pharmaceuticals Research UK Limited, priority 2020, dated 2026)",
  "test_system": "seizures associated with Cortical Dysplasia and Cortical Brain Malformation",
  "experiment": "Open label, expanded-access program of botanically derived purified CBD: caregiver-diary seizure frequency",
  "format": "in vivo, human patients",
  "set-up": "reduction in atonic seizures over the treatment period / reduction in tonic seizures over the treatment period / reduction in focal seizures without impairment over the treatment period: concentration or dose not given beside the values",
  "conditions": "for Seizure frequency: Focal with impairment: baseline 49.0; for Seizure frequency: Atonic: baseline 80.0",
  "method": "Subjects were required to be on one or more AEDs at stable doses for a minimum of two weeks prior to baseline and to have stable vagus nerve stimulation (VNS) settings and ketogenic diet ratios for a minimum of four weeks prior to baseline.\nDose was then increased weekly by 5 mg/kg/day to a goal of 20 to 25 mg/kg/day.\nA maximum dose of 50 mg/kg/day could be utilised for patients who were tolerating the medication but had not achieved seizure control; these patients had further weekly titration by 5 mg/kg/day.\nModifications were made to concomitant AEDs as per clinical indication.\nSeizure frequency, intensity, and duration were recorded by caregivers in a diary during a baseline period of at least 28 days. Changes in seizure frequency relative to baseline were calculated after at least 2 weeks and at defined timepoints of treatment.\nPatients may be defined as responders if they had more than 50% reduction in seizure frequency compared to baseline. the percent change in seizure frequency was calculated as follows: […]\nThe percent change of seizure frequency may be calculated for any time interval where seizure number has been recorded. For the purpose of this example the percent change of seizure frequency for the end of the treatment period was calculated as follows: […]",
  "note": "“Also recorded” adds a separate entry of the source.",
  "data": [
    {"smiles": "C=C(C)[C@@H]1CCC(C)=C[C@H]1c1c(O)cc(CCCCC)cc1O", "note": "[CBD, cannabidiol]", "values": [
      {"measurement": "Seizure frequency: Tonic", "setting": "Patient 4, 96 weeks, CBD 50.0 mg/kg/day, baseline 196.0", "value": 22.0, "unit": "seizures per week"},
      {"measurement": "Seizure frequency: Tonic", "setting": "Patient 4, 120 weeks, CBD 42.6 mg/kg/day, baseline 196.0", "value": 16.0, "unit": "seizures per week"},
      {"measurement": "Seizure frequency: Tonic", "setting": "Patient 4, 132 weeks, CBD 49.8 mg/kg/day, baseline 196.0", "value": 36.0, "unit": "seizures per week"},
      {"measurement": "reduction in tonic seizures over the treatment period", "setting": "Patient 4, treated for 132 weeks, vs baseline", "value": 81.6, "unit": "%"},
      {"measurement": "Seizure frequency: Tonic", "setting": "Patient 5, 4 weeks, CBD 20.0 mg/kg/day, baseline 4.0", "value": 3.2, "unit": "seizures per week"},
      {"measurement": "Seizure frequency: Tonic", "setting": "Patient 5, 8 weeks, CBD 35.0 mg/kg/day, baseline 4.0", "value": 11.0, "unit": "seizures per week"},
      {"measurement": "Seizure frequency: Tonic", "setting": "Patient 5, 12 weeks, CBD 50.0 mg/kg/day, baseline 4.0", "value": 1.0, "unit": "seizures per week"},
      {"measurement": "Seizure frequency: Tonic", "setting": "Patient 5, 24 weeks, CBD 50.0 mg/kg/day, baseline 4.0", "value": 0.0, "unit": "seizures per week"},
      {"measurement": "Seizure frequency: Tonic", "setting": "Patient 5, 36 weeks, CBD 47.0 mg/kg/day, baseline 4.0", "value": 0.0, "unit": "seizures per week"},
      {"measurement": "Seizure frequency: Tonic", "setting": "Patient 5, 48 weeks, CBD 46.0 mg/kg/day, baseline 4.0", "value": 1.0, "unit": "seizures per week"},
      {"measurement": "Seizure frequency: Tonic", "setting": "Patient 5, 60 weeks, CBD 49.0 mg/kg/day, baseline 4.0", "value": 1.0, "unit": "seizures per week"},
      {"measurement": "Seizure frequency: Tonic", "setting": "Patient 5, 72 weeks, CBD 50.0 mg/kg/day, baseline 4.0", "value": 0.0, "unit": "seizures per week"},
      {"measurement": "Seizure frequency: Tonic", "setting": "Patient 5, 84 weeks, CBD 50.0 mg/kg/day, baseline 4.0", "value": 0.0, "unit": "seizures per week"},
      {"measurement": "Seizure frequency: Tonic", "setting": "Patient 5, 96 weeks, CBD 49.7 mg/kg/day, baseline 4.0", "value": 0.0, "unit": "seizures per week"},
      {"measurement": "Seizure frequency: Tonic", "setting": "Patient 5, 108 weeks, CBD 49.7 mg/kg/day, baseline 4.0", "value": 0.0, "unit": "seizures per week"},
      {"measurement": "Seizure frequency: Tonic", "setting": "Patient 5, 132 weeks, CBD 49.1 mg/kg/day, baseline 4.0", "value": 0.0, "unit": "seizures per week"},
      {"measurement": "Seizure frequency: Tonic", "setting": "Patient 5, 144 weeks, CBD 50.0 mg/kg/day, baseline 4.0", "value": 0.0, "unit": "seizures per week"},
      {"measurement": "reduction in tonic seizures over the treatment period", "setting": "Patient 5, treated for 144 weeks, vs baseline", "value": 100, "unit": "%"},
      {"measurement": "Seizure frequency: Focal without impairment", "setting": "Patient 6, 4 weeks, CBD 25.0 mg/kg/day, baseline 20.0", "value": 8.0, "unit": "seizures per week"},
      {"measurement": "Seizure frequency: Focal without impairment", "setting": "Patient 6, 8 weeks, CBD 25.0 mg/kg/day, baseline 20.0", "value": 0.0, "unit": "seizures per week"},
      {"measurement": "Seizure frequency: Focal without impairment", "setting": "Patient 6, 16 weeks, CBD 25.0 mg/kg/day, baseline 20.0", "value": 4.0, "unit": "seizures per week"},
      {"measurement": "Seizure frequency: Focal without impairment", "setting": "Patient 6, 24 weeks, CBD 25.0 mg/kg/day, baseline 20.0", "value": 2.0, "unit": "seizures per week"},
      {"measurement": "reduction in focal seizures without impairment over the treatment period", "setting": "Patient 6, treated for 24 weeks, vs baseline", "value": 90, "unit": "%"},
      {"measurement": "Seizure frequency: Focal with impairment", "setting": "Patient 7, 2 weeks, CBD 10.0 mg/kg/day", "value": 22.0, "unit": "seizures per week"},
      {"measurement": "Seizure frequency: Focal without impairment", "setting": "Patient 7, 2 weeks, CBD 10.0 mg/kg/day, baseline 233.0", "value": 182.0, "unit": "seizures per week"},
      {"measurement": "Seizure frequency: Focal with impairment", "setting": "Patient 7, 4 weeks, CBD 20.0 mg/kg/day", "value": 26.0, "unit": "seizures per week"},
      {"measurement": "Seizure frequency: Focal without impairment", "setting": "Patient 7, 4 weeks, CBD 20.0 mg/kg/day, baseline 233.0", "value": 62.0, "unit": "seizures per week"},
      {"measurement": "Seizure frequency: Focal with impairment", "setting": "Patient 7, 8 weeks, CBD 25.0 mg/kg/day", "value": 35.0, "unit": "seizures per week"},
      {"measurement": "Seizure frequency: Focal without impairment", "setting": "Patient 7, 8 weeks, CBD 25.0 mg/kg/day, baseline 233.0", "value": 125.0, "unit": "seizures per week"},
      {"measurement": "Seizure frequency: Focal with impairment", "setting": "Patient 7, 12 weeks, CBD 25.0 mg/kg/day", "value": 40.0, "unit": "seizures per week"},
      {"measurement": "Seizure frequency: Focal without impairment", "setting": "Patient 7, 12 weeks, CBD 25.0 mg/kg/day, baseline 233.0", "value": 112.0, "unit": "seizures per week"},
      {"measurement": "Seizure frequency: Focal with impairment", "setting": "Patient 7, 16 weeks, CBD 25.0 mg/kg/day", "value": 66.7, "unit": "seizures per week"},
      {"measurement": "Seizure frequency: Focal without impairment", "setting": "Patient 7, 16 weeks, CBD 25.0 mg/kg/day, baseline 233.0", "value": 93.3, "unit": "seizures per week"},
      {"measurement": "Seizure frequency: Focal with impairment", "setting": "Patient 7, 24 weeks, CBD 25.0 mg/kg/day", "value": 62.4, "unit": "seizures per week"},
      {"measurement": "Seizure frequency: Focal without impairment", "setting": "Patient 7, 24 weeks, CBD 25.0 mg/kg/day, baseline 233.0", "value": 96.8, "unit": "seizures per week"},
      {"measurement": "Seizure frequency: Focal with impairment", "setting": "Patient 7, 36 weeks, CBD 20.0 mg/kg/day", "value": 94.8, "unit": "seizures per week"},
      {"measurement": "Seizure frequency: Focal without impairment", "setting": "Patient 7, 36 weeks, CBD 20.0 mg/kg/day, baseline 233.0", "value": 39.7, "unit": "seizures per week"},
      {"measurement": "Seizure frequency: Focal with impairment", "setting": "Patient 7, 48 weeks, CBD 20.0 mg/kg/day", "value": 62.5, "unit": "seizures per week"},
      {"measurement": "Seizure frequency: Focal without impairment", "setting": "Patient 7, 48 weeks, CBD 20.0 mg/kg/day, baseline 233.0", "value": 92.9, "unit": "seizures per week"},
      {"measurement": "Seizure frequency: Focal with impairment", "setting": "Patient 7, 60 weeks, CBD 20.0 mg/kg/day", "value": 72.8, "unit": "seizures per week"},
      {"measurement": "Seizure frequency: Focal without impairment", "setting": "Patient 7, 60 weeks, CBD 20.0 mg/kg/day, baseline 233.0", "value": 141.2, "unit": "seizures per week"},
      {"measurement": "Seizure frequency: Focal with impairment", "setting": "Patient 7, 72 weeks, CBD 20.0 mg/kg/day", "value": 179.7, "unit": "seizures per week"},
      {"measurement": "Seizure frequency: Focal without impairment", "setting": "Patient 7, 72 weeks, CBD 20.0 mg/kg/day, baseline 233.0", "value": 139.4, "unit": "seizures per week"},
      {"measurement": "reduction in focal seizures without impairment over the treatment period", "setting": "Patient 7, treated for 72 weeks, vs baseline", "value": 40.2, "unit": "%"},
      {"measurement": "Seizure frequency: Tonic", "setting": "Patient 8, 4 weeks, CBD 20.0 mg/kg/day, baseline 280.0", "value": 6.0, "unit": "seizures per week"},
      {"measurement": "Seizure frequency: Tonic", "setting": "Patient 8, 8 weeks, CBD 25.0 mg/kg/day, baseline 280.0", "value": 5.0, "unit": "seizures per week"},
      {"measurement": "Seizure frequency: Atonic", "setting": "Patient 8, 12 weeks, CBD 25.0 mg/kg/day", "value": 12.0, "unit": "seizures per week"},
      {"measurement": "Seizure frequency: Tonic", "setting": "Patient 8, 12 weeks, CBD 25.0 mg/kg/day, baseline 280.0", "value": 60.0, "unit": "seizures per week"},
      {"measurement": "Seizure frequency: Atonic", "setting": "Patient 8, 16 weeks, CBD 25.0 mg/kg/day", "value": 24.0, "unit": "seizures per week"},
      {"measurement": "Seizure frequency: Tonic", "setting": "Patient 8, 16 weeks, CBD 25.0 mg/kg/day, baseline 280.0", "value": 56.0, "unit": "seizures per week"},
      {"measurement": "Seizure frequency: Atonic", "setting": "Patient 8, 24 weeks, CBD 25.0 mg/kg/day", "value": 4.0, "unit": "seizures per week"},
      {"measurement": "Seizure frequency: Tonic", "setting": "Patient 8, 24 weeks, CBD 25.0 mg/kg/day, baseline 280.0", "value": 32.0, "unit": "seizures per week"},
      {"measurement": "Seizure frequency: Atonic", "setting": "Patient 8, 36 weeks, CBD 10.0 mg/kg/day", "value": 4.0, "unit": "seizures per week"},
      {"measurement": "Seizure frequency: Tonic", "setting": "Patient 8, 36 weeks, CBD 10.0 mg/kg/day, baseline 280.0", "value": 896.0, "unit": "seizures per week"},
      {"measurement": "reduction in atonic seizures over the treatment period", "setting": "Patient 8, treated for 36 weeks, vs baseline", "value": 95.0, "unit": "%"},
      {"measurement": "reductions in seizures over period of treatment, overall", "setting": "all patients, atonic, tonic and focal without impairment seizures", "value": "40.2-100.0%"},
      {"measurement": "seizure freedom from tonic seizures", "setting": "one patient (patient 5), after 12 months of CBD treatment", "value": "seizure free of tonic seizures; also recorded: completely seizure free"},
      {"measurement": "effect on frequency of atonic, tonic and focal without impairment seizures (in words)", "setting": "patients with Cortical Dysplasia and Cortical Brain Malformation", "value": "effective in reducing the frequency; also recorded: significantly reduce the number of seizures; also recorded: significant reduction"}
    ]}
  ]
}
